Laboratory results: PubChem BioAssay (NCI)
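Dose response: 5 concentrations. Exposure: 48 h. Format: 96-well plates. Endpoint: linear interpolation; highest concentration if not reached. At the TGI there is no net growth.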

Legend:
Experiment in all cases: NCI tumour cell line growth inhibition, 48 h
PC-3 prostate = test system: PC-3 prostate
MDA-N = test system: MDA-N
A549 NSCLC = test system: A549 NSCLC
TK-10 renal = test system: TK-10 renal
MOLT-4 leukemia = test system: MOLT-4 leukemia
NCI-H23 lung = test system: NCI-H23 lung
OVCAR-3 ovarian = test system: OVCAR-3 ovarian
ACHN renal = test system: ACHN renal
OVCAR-8 ovarian = test system: OVCAR-8 ovarian
OVCAR-4 ovarian = test system: OVCAR-4 ovarian
UO-31 renal = test system: UO-31 renal
SN12C renal = test system: SN12C renal
BT-549 breast = test system: BT-549 breast
SK-MEL-5 melanoma = test system: SK-MEL-5 melanoma
HS 578T breast = test system: HS 578T breast
NCI-H460 lung = test system: NCI-H460 lung
M14 melanoma = test system: M14 melanoma
SR leukemia = test system: SR leukemia
K-562 leukemia = test system: K-562 leukemia
NCI-H522 lung = test system: NCI-H522 lung
U251 CNS = test system: U251 CNS
HT29 colon = test system: HT29 colon
SF-539 CNS = test system: SF-539 CNS
NCI/ADR-RES ovarian = test system: NCI/ADR-RES ovarian
MDA-MB-231 breast = test system: MDA-MB-231 breast
MDA-MB-435 = test system: MDA-MB-435
RPMI-8226 leukemia = test system: RPMI-8226 leukemia
UACC-257 melanoma = test system: UACC-257 melanoma
KM12 colon = test system: KM12 colon
HL-60(TB) leukemia = test system: HL-60(TB) leukemia
OVCAR-5 ovarian = test system: OVCAR-5 ovarian
HOP-62 NSCLC = test system: HOP-62 NSCLC
SF-295 CNS = test system: SF-295 CNS
COLO 205 colon = test system: COLO 205 colon
EKVX NSCLC = test system: EKVX NSCLC
A498 renal = test system: A498 renal
HOP-92 NSCLC = test system: HOP-92 NSCLC
SK-MEL-2 melanoma = test system: SK-MEL-2 melanoma
T-47D breast = test system: T-47D breast
SW-620 colon = test system: SW-620 colon
UACC-62 melanoma = test system: UACC-62 melanoma
IGROV1 ovarian = test system: IGROV1 ovarian
HCT-15 colon = test system: HCT-15 colon
CAKI-1 renal = test system: CAKI-1 renal
LOX IMVI melanoma = test system: LOX IMVI melanoma
RXF 393 renal = test system: RXF 393 renal
HCT-116 colon = test system: HCT-116 colon
DU-145 prostate = test system: DU-145 prostate
MCF7 breast = test system: MCF7 breast
SNB-75 CNS = test system: SNB-75 CNS
HCC-2998 colon = test system: HCC-2998 colon
SF-268 CNS = test system: SF-268 CNS
NCI-H226 lung = test system: NCI-H226 lung
SNB-19 CNS = test system: SNB-19 CNS
CCRF-CEM leukemia = test system: CCRF-CEM leukemia
786-0 renal = test system: 786-0 renal
SK-MEL-28 melanoma = test system: SK-MEL-28 melanoma
MALME-3M melanoma = test system: MALME-3M melanoma
SK-OV-3 ovarian = test system: SK-OV-3 ovarian

Structure (SMILES): O=C(O)CN1CCN(CC(=O)O)CCN(CC(=O)O)CCN(CC(=O)O)CC1
- TGI (PC-3 prostate): > 100 µM
- TGI (MDA-N): > 100 µM
- TGI (A549 NSCLC): > 100 µM
- TGI (TK-10 renal): > 100 µM
- TGI (MOLT-4 leukemia): > 100 µM
- TGI (NCI-H23 lung): > 100 µM
- TGI (OVCAR-3 ovarian): > 100 µM
- TGI (ACHN renal): > 100 µM
- TGI (OVCAR-8 ovarian): > 100 µM
- TGI (OVCAR-4 ovarian): > 100 µM
- TGI (UO-31 renal): > 100 µM
- TGI (SN12C renal): > 100 µM
- TGI (BT-549 breast): > 100 µM
- TGI (SK-MEL-5 melanoma): > 100 µM
- TGI (HS 578T breast): > 100 µM
- TGI (NCI-H460 lung): > 100 µM
- TGI (M14 melanoma): > 100 µM
- TGI (SR leukemia): > 100 µM
- TGI (K-562 leukemia): > 100 µM
- TGI (NCI-H522 lung): > 100 µM
- TGI (U251 CNS): > 100 µM
- TGI (HT29 colon): > 100 µM
- TGI (SF-539 CNS): > 100 µM
- TGI (NCI/ADR-RES ovarian): > 100 µM
- TGI (MDA-MB-231 breast): > 100 µM
- TGI (MDA-MB-435): > 100 µM
- TGI (RPMI-8226 leukemia): > 100 µM
- TGI (UACC-257 melanoma): > 100 µM
- TGI (KM12 colon): > 100 µM
- TGI (HL-60(TB) leukemia): > 100 µM
- TGI (OVCAR-5 ovarian): > 100 µM
- TGI (HOP-62 NSCLC): > 100 µM
- TGI (SF-295 CNS): > 100 µM
- TGI (COLO 205 colon): > 100 µM
- TGI (EKVX NSCLC): > 100 µM
- TGI (A498 renal): > 100 µM
- TGI (HOP-92 NSCLC): > 100 µM
- TGI (SK-MEL-2 melanoma): > 100 µM
- TGI (T-47D breast): > 100 µM
- TGI (SW-620 colon): > 100 µM
- TGI (UACC-62 melanoma): > 100 µM
- TGI (IGROV1 ovarian): > 100 µM
- TGI (HCT-15 colon): > 100 µM
- TGI (CAKI-1 renal): > 100 µM
- TGI (LOX IMVI melanoma): > 100 µM
- TGI (RXF 393 renal): > 100 µM
- TGI (HCT-116 colon): > 100 µM
- TGI (DU-145 prostate): > 100 µM
- TGI (MCF7 breast): > 100 µM
- TGI (SNB-75 CNS): > 100 µM
- TGI (HCC-2998 colon): > 100 µM
- TGI (SF-268 CNS): > 100 µM
- TGI (NCI-H226 lung): > 100 µM
- TGI (SNB-19 CNS): > 100 µM
- TGI (CCRF-CEM leukemia): > 100 µM
- TGI (786-0 renal): > 100 µM

Structure (SMILES): COc1cc2cc(C(=O)N3CC(CCl)c4ccc(NCCN)cc43)[nH]c2c(OC)c1OC (stereo not drawn)
- TGI (PC-3 prostate): 2.07 µM
- TGI (MDA-N): 0.432 µM
- TGI (A549 NSCLC): 12.5 µM
- TGI (TK-10 renal): 6.08 µM
- TGI (MOLT-4 leukemia): 0.356 µM
- TGI (NCI-H23 lung): 1.23 µM
- TGI (OVCAR-3 ovarian): 0.579 µM
- TGI (ACHN renal): 0.768 µM
- TGI (OVCAR-8 ovarian): 2.77 µM
- TGI (OVCAR-4 ovarian): 3.06 µM
- TGI (UO-31 renal): 0.382 µM
- TGI (SN12C renal): 2.42 µM
- TGI (BT-549 breast): 1.94 µM
- TGI (SK-MEL-5 melanoma): 0.263 µM
- TGI (HS 578T breast): 3.37 µM
- TGI (NCI-H460 lung): 4 µM
- TGI (M14 melanoma): 0.716 µM
- TGI (SR leukemia): 38.8 µM
- TGI (SK-MEL-28 melanoma): 1.4 µM
- TGI (K-562 leukemia): 0.572 µM
- TGI (NCI-H522 lung): 0.542 µM
- TGI (HT29 colon): 11.1 µM
- TGI (SF-539 CNS): 1.41 µM
- TGI (NCI/ADR-RES ovarian): 1.54 µM
- TGI (MDA-MB-231 breast): 1.9 µM
- TGI (MDA-MB-435): 0.706 µM
- TGI (RPMI-8226 leukemia): 1.17 µM
- TGI (UACC-257 melanoma): 0.637 µM
- TGI (KM12 colon): 1.07 µM
- TGI (HL-60(TB) leukemia): 0.226 µM
- TGI (OVCAR-5 ovarian): 6.03 µM
- TGI (HOP-62 NSCLC): 0.645 µM
- TGI (SF-295 CNS): 1.44 µM
- TGI (COLO 205 colon): 2.55 µM
- TGI (EKVX NSCLC): 6.1 µM
- TGI (A498 renal): 0.339 µM
- TGI (MALME-3M melanoma): 0.391 µM
- TGI (HOP-92 NSCLC): 4 µM
- TGI (SK-MEL-2 melanoma): 0.408 µM
- TGI (T-47D breast): 5.19 µM
- TGI (UACC-62 melanoma): 0.35 µM
- TGI (IGROV1 ovarian): 0.375 µM
- TGI (HCT-15 colon): 4.33 µM
- TGI (SK-OV-3 ovarian): 1.16 µM
- TGI (CAKI-1 renal): 1 µM
- TGI (LOX IMVI melanoma): 0.881 µM
- TGI (RXF 393 renal): 0.327 µM
- TGI (HCT-116 colon): > 32.7 µM
- TGI (DU-145 prostate): 6.2 µM
- TGI (MCF7 breast): 3.45 µM
- TGI (SNB-75 CNS): 0.571 µM
- TGI (HCC-2998 colon): 0.709 µM
- TGI (SF-268 CNS): 1.29 µM
- TGI (NCI-H226 lung): 1.76 µM
- TGI (SNB-19 CNS): 3.13 µM
- TGI (CCRF-CEM leukemia): 2.24 µM
- TGI (786-0 renal): 1.12 µM
